Measured values as given in ChEMBL document CHEMBL2203217, “Prohormone-substrate peptide sequence recognition by peptidylglycine α-amidating monooxygenase and its reflection in increased glycolate inhibitor potency” (Bioorg Med Chem Lett, 2012).

Key:
[1] = target: T1, Peptidyl-glycine alpha-amidating monooxygenase (Homo sapiens, UniProt P19021); assay: Competitive inhibition of PAM in human DMS53 cells using as(R)-Tyr-(S)-Val-Gly as substrate after 2 hrs by HPLC analysis; format: cell-based, DMS-53
T1 sequence (P19021 whole entry): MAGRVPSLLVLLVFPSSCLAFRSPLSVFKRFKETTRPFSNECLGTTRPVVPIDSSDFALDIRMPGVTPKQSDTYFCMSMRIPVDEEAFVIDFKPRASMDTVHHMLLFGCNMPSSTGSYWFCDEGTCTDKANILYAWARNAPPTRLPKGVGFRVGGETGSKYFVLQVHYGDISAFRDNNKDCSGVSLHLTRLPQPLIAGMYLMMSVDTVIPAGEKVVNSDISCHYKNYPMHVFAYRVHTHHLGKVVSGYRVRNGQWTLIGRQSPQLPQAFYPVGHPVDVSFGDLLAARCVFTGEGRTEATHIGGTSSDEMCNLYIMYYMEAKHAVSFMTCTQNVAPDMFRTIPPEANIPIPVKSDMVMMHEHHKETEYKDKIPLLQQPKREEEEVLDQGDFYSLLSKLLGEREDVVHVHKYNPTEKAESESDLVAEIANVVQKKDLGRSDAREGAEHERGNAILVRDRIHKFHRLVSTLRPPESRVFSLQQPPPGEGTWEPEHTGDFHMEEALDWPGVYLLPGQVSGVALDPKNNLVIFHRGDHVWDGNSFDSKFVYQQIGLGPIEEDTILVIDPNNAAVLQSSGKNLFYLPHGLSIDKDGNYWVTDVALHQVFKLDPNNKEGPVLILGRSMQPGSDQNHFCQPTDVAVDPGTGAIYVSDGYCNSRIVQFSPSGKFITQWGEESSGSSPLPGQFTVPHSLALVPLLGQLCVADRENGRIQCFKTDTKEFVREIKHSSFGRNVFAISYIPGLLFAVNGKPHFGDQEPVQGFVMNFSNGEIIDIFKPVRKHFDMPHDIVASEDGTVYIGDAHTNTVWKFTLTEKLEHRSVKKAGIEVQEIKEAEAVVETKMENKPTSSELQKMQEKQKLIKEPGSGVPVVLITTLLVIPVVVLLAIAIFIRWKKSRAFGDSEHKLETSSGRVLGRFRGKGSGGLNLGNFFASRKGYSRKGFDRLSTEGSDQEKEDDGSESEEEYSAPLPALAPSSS

[2] = target: T1, Peptidyl-glycine alpha-amidating monooxygenase; assay: Competitive inhibition of secreted PAM in human DMS53 cell culture medium using as(R)-Tyr-(S)-Val-Gly as substrate after 2 hrs by HPLC analysis; design: species or system DMS-53

Row | SMILES | IC50 [1] | IC50 [2]
1 | N[C@@H](Cc1ccccc1)C(=O)OCC(=O)O | 1100 µM | 1600 µM
2 | C[C@H](N)C(=O)N1CCC[C@H]1C(=O)OCC(=O)O | 370 µM | 290 µM
3 | O=C(O)COC(=O)[C@@H]1CCCN1 | 600 µM | 500 µM
4 | CC(=O)OCC(=O)O | 1100 µM | 1100 µM
5 | C[C@H](N)C(=O)N[C@@H](Cc1ccccc1)C(=O)OCC(=O)O | 350 µM | 370 µM
